The record followed here is patent US10660877B2 (BRISTOL-MYERS SQUIBB COMPANY, priority 2016, dated 2020).

Structures are written as SMILES. pIC50: −log10 of the molar value. Where only a bound is given, the exact number is not on record here.

As usually defined, the pIC50 is −log10 of the IC50, conventionally taken in molar units.

For one assay, the target named is human TLR9 (Homo sapiens (Human), UniProt Q9NR96). Nature of the assay: TLR9 inhibition reporter assay (HEK-Blue cells, SEAP reporter, ODN2006 stimulation).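 Note: compounds tested over 0.05 nM to 50 µM, 22 h incubation, inhibition taken as SEAP signal drop from agonist plus DMSO wells toward a known inhibitor control.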 Conditions: read-out: TLR9 IC50, HEK-Blue cells overexpressing human TLR9, ODN2006 5 nM. For orientation: Reporter assays use an easily measured gene product as a stand-in for the process of interest.
Sequence of human TLR9 (Q9NR96 26-1032): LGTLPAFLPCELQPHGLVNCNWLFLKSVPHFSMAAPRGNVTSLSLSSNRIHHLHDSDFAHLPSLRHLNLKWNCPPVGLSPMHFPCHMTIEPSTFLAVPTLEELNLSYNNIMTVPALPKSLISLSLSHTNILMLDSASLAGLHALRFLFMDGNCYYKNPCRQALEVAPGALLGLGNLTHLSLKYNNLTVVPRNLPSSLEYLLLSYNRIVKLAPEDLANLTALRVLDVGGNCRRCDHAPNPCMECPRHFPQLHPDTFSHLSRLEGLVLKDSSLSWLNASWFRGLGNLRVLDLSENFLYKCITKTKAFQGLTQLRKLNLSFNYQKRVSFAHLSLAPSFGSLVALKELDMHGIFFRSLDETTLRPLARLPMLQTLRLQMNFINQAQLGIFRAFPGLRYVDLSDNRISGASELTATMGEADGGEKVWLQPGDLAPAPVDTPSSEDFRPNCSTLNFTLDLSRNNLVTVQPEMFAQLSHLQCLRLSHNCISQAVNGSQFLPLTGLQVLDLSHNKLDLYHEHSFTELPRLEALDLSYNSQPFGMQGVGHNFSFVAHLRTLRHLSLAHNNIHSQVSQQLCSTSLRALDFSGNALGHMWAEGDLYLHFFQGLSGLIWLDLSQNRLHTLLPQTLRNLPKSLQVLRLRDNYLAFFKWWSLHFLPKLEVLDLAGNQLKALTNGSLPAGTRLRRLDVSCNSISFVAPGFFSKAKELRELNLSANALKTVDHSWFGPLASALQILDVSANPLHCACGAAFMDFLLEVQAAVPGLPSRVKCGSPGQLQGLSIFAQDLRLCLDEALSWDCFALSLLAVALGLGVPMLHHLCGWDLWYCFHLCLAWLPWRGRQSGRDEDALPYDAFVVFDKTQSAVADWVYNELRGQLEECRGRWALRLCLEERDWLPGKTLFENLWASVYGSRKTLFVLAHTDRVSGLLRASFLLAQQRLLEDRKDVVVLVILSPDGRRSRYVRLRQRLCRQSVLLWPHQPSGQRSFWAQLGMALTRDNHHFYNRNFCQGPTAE
The target of a further assay is human TLR8 (Homo sapiens (Human), UniProt Q9NR97). Description: TLR8 inhibition reporter assay (HEK-Blue cells, SEAP reporter, R848 stimulation).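 Note: compounds tested from 0.05 nM to 50 µM, 22 h at 37 °C, SEAP measured with HEK-Blue Detection, inhibition relative to agonist plus DMSO versus a known inhibitor.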 The note with it: read-out: TLR8 IC50, HEK-Blue cells overexpressing human TLR8, R848 15.9 μM.
Sequence of human TLR8 (Q9NR97 27-1041): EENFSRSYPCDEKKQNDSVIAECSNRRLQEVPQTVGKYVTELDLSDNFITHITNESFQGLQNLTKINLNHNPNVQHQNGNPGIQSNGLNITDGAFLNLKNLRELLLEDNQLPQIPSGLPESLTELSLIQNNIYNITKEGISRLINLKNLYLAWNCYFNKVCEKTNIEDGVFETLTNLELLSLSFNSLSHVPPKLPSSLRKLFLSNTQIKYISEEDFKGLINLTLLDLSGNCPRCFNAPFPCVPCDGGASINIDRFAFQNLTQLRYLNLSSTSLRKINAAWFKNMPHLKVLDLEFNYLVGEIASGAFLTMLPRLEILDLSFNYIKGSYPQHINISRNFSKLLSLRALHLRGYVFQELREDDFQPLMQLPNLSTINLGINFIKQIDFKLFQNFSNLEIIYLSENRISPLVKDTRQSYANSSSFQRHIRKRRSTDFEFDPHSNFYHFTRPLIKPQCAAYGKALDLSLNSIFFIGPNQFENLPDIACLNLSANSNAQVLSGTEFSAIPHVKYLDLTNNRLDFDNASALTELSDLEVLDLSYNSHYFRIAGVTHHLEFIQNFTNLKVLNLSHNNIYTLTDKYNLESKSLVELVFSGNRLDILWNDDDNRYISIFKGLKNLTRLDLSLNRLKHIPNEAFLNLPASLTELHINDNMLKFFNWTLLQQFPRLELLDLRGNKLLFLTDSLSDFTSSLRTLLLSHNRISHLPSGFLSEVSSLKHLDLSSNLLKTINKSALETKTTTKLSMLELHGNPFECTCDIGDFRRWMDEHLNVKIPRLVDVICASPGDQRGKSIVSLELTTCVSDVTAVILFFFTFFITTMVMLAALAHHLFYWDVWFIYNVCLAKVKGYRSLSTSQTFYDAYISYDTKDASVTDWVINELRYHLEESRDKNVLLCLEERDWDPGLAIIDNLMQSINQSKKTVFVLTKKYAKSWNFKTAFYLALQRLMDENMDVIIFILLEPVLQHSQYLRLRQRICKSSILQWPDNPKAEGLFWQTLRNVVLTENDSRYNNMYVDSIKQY
For a further assay, the target named is human TLR7 (Homo sapiens (Human), UniProt Q9NYK1). Nature of the assay: TLR7 inhibition reporter assay (HEK-Blue cells, SEAP reporter, gardiquimod stimulation). The format is cell-based. The note with it: HEK-Blue cells overexpressing human TLR7, gardiquimod 7.5 μM.
Sequence of human TLR7 (Q9NYK1 27-1049): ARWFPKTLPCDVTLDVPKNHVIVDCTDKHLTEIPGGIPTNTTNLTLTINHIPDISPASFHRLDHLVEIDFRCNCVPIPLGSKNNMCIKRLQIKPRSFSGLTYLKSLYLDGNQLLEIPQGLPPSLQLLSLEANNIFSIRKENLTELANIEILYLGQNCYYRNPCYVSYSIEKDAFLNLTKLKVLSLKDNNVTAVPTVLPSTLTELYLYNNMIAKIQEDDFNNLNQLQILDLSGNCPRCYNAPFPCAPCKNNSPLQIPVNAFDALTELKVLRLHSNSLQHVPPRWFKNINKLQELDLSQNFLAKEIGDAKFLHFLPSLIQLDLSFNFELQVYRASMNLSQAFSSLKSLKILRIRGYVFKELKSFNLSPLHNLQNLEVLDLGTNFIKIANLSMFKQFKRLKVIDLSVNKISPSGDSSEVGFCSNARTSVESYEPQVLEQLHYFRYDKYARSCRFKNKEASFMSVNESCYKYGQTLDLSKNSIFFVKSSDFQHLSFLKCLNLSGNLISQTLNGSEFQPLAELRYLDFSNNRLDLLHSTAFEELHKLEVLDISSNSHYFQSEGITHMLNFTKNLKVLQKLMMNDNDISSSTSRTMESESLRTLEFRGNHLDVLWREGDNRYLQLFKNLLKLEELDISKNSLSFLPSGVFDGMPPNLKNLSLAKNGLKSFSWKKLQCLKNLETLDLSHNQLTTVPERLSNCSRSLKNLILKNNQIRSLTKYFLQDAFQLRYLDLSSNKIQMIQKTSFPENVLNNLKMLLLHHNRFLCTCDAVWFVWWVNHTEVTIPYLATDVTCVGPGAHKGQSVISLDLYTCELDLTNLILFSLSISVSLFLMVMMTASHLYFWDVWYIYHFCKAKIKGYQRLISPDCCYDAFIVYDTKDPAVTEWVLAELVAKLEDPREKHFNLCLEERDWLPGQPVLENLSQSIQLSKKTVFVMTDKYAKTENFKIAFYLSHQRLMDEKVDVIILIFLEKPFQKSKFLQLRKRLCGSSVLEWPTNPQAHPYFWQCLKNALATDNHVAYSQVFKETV

As for `CC(C)c1c(-c2cc(C3CC3)ncc2F)[nH]c2ccc(C3CCN(C(=O)CN(C)C)CC3)cc12` [Example 516, 1-(4-(2-(2-cyclopropyl-5-fluoropyridin-4-yl)-3-isopropyl-1H-indol-5-yl)piperidin-1-yl)-2-(dimethylamino)ethan-1-one], the pIC50 on human TLR9 is 5.84; on human TLR8, 6.72; on human TLR7, 7.92.
For `CC(C)c1c(-c2cc(C3CC3)ncc2F)[nH]c2ccc(C3CCN(C(=O)C4CC(=O)N(C)C4)CC3)cc12` (stereo not drawn) [Example 517, 4-(4-(2-(2-cyclopropyl-5-fluoropyridin-4-yl)-3-isopropyl-1H-indol-5-yl)piperidine-1-carbonyl)-1-methylpyrrolidin-2-one], in that order: less than 4.30, 5.94 and 6.84.
The like results for `CNCC(=O)N1CCC(c2ccc3[nH]c(-c4cc(C5CC5)ncc4F)c(C(C)C)c3c2)CC1` [Example 518, 1-(4-(2-(2-cyclopropyl-5-fluoropyridin-4-yl)-3-isopropyl-1H-indol-5-yl)piperidin-1-yl)-2-(methylamino)ethan-1-one] were, in that order, 5.79, 6.59 and 7.82.
On to `COc1cc(-c2[nH]c3ccc(C4CCN(Cc5c[nH]c(C)n5)CC4)cc3c2C(C)C)ccn1` [Example 520, 3-isopropyl-2-(2-methoxypyridin-4-yl)-5-(1-((2-methyl-1H-imidazol-4-yl)methyl)piperidin-4-yl)-1H-indole], for which the pIC50 on human TLR9 was 6.36; on human TLR8, 7.57; against human TLR7, 7.37.
For `COc1cc(-c2[nH]c3ccc(C4CCN(C(=O)CN(C)C)CC4)cc3c2C(C)C)ccn1` [Example 521, 2-(dimethylamino)-1-(4-(3-isopropyl-2-(2-methoxypyridin-4-yl)-1H-indol-5-yl)piperidin-1-yl)ethan-1-one], the pIC50 at human TLR9 is 5.43; at human TLR8, 6.94; against human TLR7 it was 7.38.
In the case of `CC(C)c1c(-c2ccnc(F)c2)[nH]c2ccc(C3CCN(C(=O)CN(C)C)CC3)cc12` [Example 522, 2-(dimethylamino)-1-(4-(2-(2-fluoropyridin-4-yl)-3-isopropyl-1H-indol-5-yl)piperidin-1-yl)ethan-1-one], the pIC50 is 5.70 on human TLR9, 7.32 at human TLR8 and 7.63 against human TLR7.
With `CC(C)c1c(-c2ccnc(F)c2)[nH]c2ccc(C3CCN(C4CCN(C)CC4)CC3)cc12` [Example 523, 2-(2-fluoropyridin-4-yl)-3-isopropyl-5-(1′-methyl-[1,4′-bipiperidin]-4-yl)-1H-indole], the results for the pIC50 on human TLR9, at human TLR8 and on human TLR7 were 6.30, 7.59 and 7.59, respectively.
Turning to `CC(C)c1c(-c2ccncc2)[nH]c2ccc(C3CCN(C(=O)CN(C)C)CC3)cc12` [Example 524, 2-(dimethylamino)-1-(4-(3-isopropyl-2-(pyridin-4-yl)-1H-indol-5-yl)piperidin-1-yl) ethan-1-one], the pIC50 on human TLR9 is 5.55; at human TLR8, 7.53; on human TLR7, 7.47.
Turning to `CC(C)c1c(-c2ccncc2)[nH]c2ccc(C3CCN(C4CCN(C)CC4)CC3)cc12` [Example 525, 3-isopropyl-5-(1′-methyl-[1,4′-bipiperidin]-4-yl)-2-(pyridin-4-yl)-1H-indole], the results for the negative logarithm of the IC50 (pIC50) at human TLR9, on human TLR8 and against human TLR7 were 6.72, 8.22 and 7.35, respectively.
For `CCc1c(-c2cc(C)nc(C)c2)[nH]c2ccc(C3CCN(CC(=O)N(C)C)CC3)cc12` [Example 526, 2-(4-(2-(2,6-dimethylpyridin-4-yl)-3-ethyl-1H-indol-5-yl)piperidin-1-yl)-N,N-dimethylacetamide], in that order: 6.99, 7.61 and 7.98.
As to `CCc1c(-c2cc(C)nc(C)c2)[nH]c2ccc(C3CCN(CC(=O)NC)CC3)cc12` [Example 527, 2-(4-(2-(2,6-dimethylpyridin-4-yl)-3-ethyl-1H-indol-5-yl)piperidin-1-yl)-N-methylacetamide], the pIC50 at human TLR9 was 6.22; on human TLR8 it was 7.20; at human TLR7, 7.27.
For `CCc1c(-c2cc(C)nc(C)c2)[nH]c2ccc(C3CCN(C(=O)CN(C)C)CC3)cc12` [Example 528, 2-(dimethylamino)-1-(4-(2-(2,6-dimethylpyridin-4-yl)-3-ethyl-1H-indol-5-yl)piperidin-1-yl)ethan-1-one], in that order: 6.82, 7.29 and 7.80.
For `CCc1c(-c2cc(C)nc(C)c2)[nH]c2ccc(C3CCN(C(=O)CNC)CC3)cc12` [Example 529, 1-(4-(2-(2,6-dimethylpyridin-4-yl)-3-ethyl-1H-indol-5-yl)piperidin-1-yl)-2-(methylamino)ethan-1-one], in that order: 6.92, 7.55 and 8.18.
For `CCc1c(-c2cc(C)nc(C)c2)[nH]c2ccc(C3CCN(C(=O)C4CC(=O)N(C)C4)CC3)cc12` (stereo not drawn) [Example 530, 4-(4-(2-(2,6-dimethylpyridin-4-yl)-3-ethyl-1H-indol-5-yl)piperidine-1-carbonyl)-1-methylpyrrolidin-2-one], in that order: 5.28, 6.40 and 7.28.
`Cc1cc(-c2[nH]c3ccc(C4CCN(CC(=O)N(C)C)CC4)cc3c2CC(F)F)cc(C)n1` [Example 531, 2-(4-(3-(2,2-difluoroethyl)-2-(2,6-dimethylpyridin-4-yl)-1H-indol-5-yl)piperidin-1-yl)-N,N-dimethylacetamide]: the pIC50 on human TLR9 was 6.66; on human TLR8 it was 7.19; against human TLR7, 7.80.
For `CNC(=O)CN1CCC(c2ccc3[nH]c(-c4cc(C)nc(C)c4)c(CC(F)F)c3c2)CC1` [Example 532, 2-(4-(3-(2,2-difluoroethyl)-2-(2,6-dimethylpyridin-4-yl)-1H-indol-5-yl)piperidin-1-yl)-N-methylacetamide], in that order: 6.09, 7.09 and 7.76.
The like results for `Cc1cc(-c2[nH]c3ccc(C4CCN(C(=O)CN(C)C)CC4)cc3c2CC(F)F)cc(C)n1` [Example 533, 1-(4-(3-(2,2-difluoroethyl)-2-(2,6-dimethylpyridin-4-yl)-1H-indol-5-yl)piperidin-1-yl)-2-(dimethylamino)ethan-1-one] were, in that order, 5.83, 6.55 and 7.11.
For `Cc1cc(-c2[nH]c3ccc(C4CCN(C(=O)C5CC(=O)N(C)C5)CC4)cc3c2CC(F)F)cc(C)n1` (stereo not drawn) [Example 534, 4-(4-(3-(2,2-difluoroethyl)-2-(2,6-dimethylpyridin-4-yl)-1H-indol-5-yl)piperidine-1-carbonyl)-1-methylpyrrolidin-2-one], in that order: 4.34, 6.18 and 7.20.
`CNCC(=O)N1CCC(c2ccc3[nH]c(-c4cc(C)nc(C)c4)c(CC(F)F)c3c2)CC1` [Example 535, 1-(4-(3-(2,2-difluoroethyl)-2-(2,6-dimethylpyridin-4-yl)-1H-indol-5-yl)piperidin-1-yl)-2-(methylamino)ethan-1-one]: the negative-log IC50 (pIC50) on human TLR9 was 6.59; on human TLR8 it was 7.06; at human TLR7 it was 8.00.
For `Cc1cc(-c2[nH]c3ccc(C4CCN(C(C)C)CC4)cc3c2CC(F)F)cc(C)n1` [Example 536, 3-(2,2-difluoroethyl)-2-(2,6-dimethylpyridin-4-yl)-5-(1-isopropylpiperidin-4-yl)-1H-indole], in that order: 6.91, 7.69 and 7.92.
For `Cc1cc(-c2[nH]c3ccc(C4CCN(Cc5c[nH]cn5)CC4)cc3c2CC(F)F)cc(C)n1` [Example 537, 5-(1-((1H-imidazol-4-yl)methyl)piperidin-4-yl)-3-(2,2-difluoroethyl)-2-(2,6-dimethylpyridin-4-yl)-1H-indole], in that order: 7.49, 7.27 and 7.44.
On to `Cc1cc(-c2[nH]c3ccc(C4CCN(Cc5c[nH]c(C)n5)CC4)cc3c2CC(F)F)cc(C)n1` [Example 538, 3-(2,2-difluoroethyl)-2-(2,6-dimethylpyridin-4-yl)-5-(1-((2-methyl-1H-imidazol-4-yl)methyl)piperidin-4-yl)-1H-indole], for which the negative logarithm of the IC50 (pIC50) on human TLR9 was 7.16; on human TLR8, 7.46; against human TLR7, 7.40.
As for `Cc1cc(-c2[nH]c3ccc(C4CCN(C)CC4)cc3c2CC(F)F)cc(C)n1` [Example 539, 3-(2,2-difluoroethyl)-2-(2,6-dimethylpyridin-4-yl)-5-(1-methylpiperidin-4-yl)-1H-indole], the negative-log IC50 (pIC50) was 5.32 on human TLR9, 7.09 on human TLR8 and 7.63 at human TLR7.
For `Cc1cc(-c2[nH]c3ccc(C4CCN(C5CCN(C(C)C)CC5)CC4)cc3c2CC(F)F)cc(C)n1` [Example 540, 3-(2,2-difluoroethyl)-2-(2,6-dimethylpyridin-4-yl)-5-(1′-isopropyl-[1,4′-bipiperidin]-4-yl)-1H-indole], in that order: 6.88, 7.59 and 7.93.
The like results for `CNCCN1CCC(c2ccc3[nH]c(-c4cc(C)nc(C)c4)c(CC(F)F)c3c2)CC1` [Example 541, 2-(4-(3-(2,2-difluoroethyl)-2-(2,6-dimethylpyridin-4-yl)-1H-indol-5-yl)piperidin-1-yl)-N-methylethan-1-amine] were, in that order, 6.96, 7.65 and 7.94.
